We go through 3 compounds from patent US20240099989A1, “AGENT FOR PREVENTING OR IMPROVING PERIPHERAL NEUROPATHY” (KINKI UNIVERSITY, priority 2021, published 2024).

Data set [1] relates to Peripheral Neuropathy in a Mouse Caused by Oxaliplatin. Kind of data set: Cold plate test (10° C.), peripheral neuropathy caused by oxaliplatin. In kind it is in vivo, Balb/c mice. How it is done: The preventive action of xylitol on hyperesthesia that occurs when an anticancer drug, oxaliplatin, was administered was examined. […] Xylitol was orally administered to a mouse simultaneously with the administration of oxaliplatin, and the following tests (cold plate test and von Frey test) were performed. Oxaliplatin is an anticancer drug classified as a platinum-containing drug. In all of the examples described below, a dosage (administered amount) (mg/kg) refers to the weight of the administered substance per kg body weight of the mouse.
Six to seven-week-old female Balb/c mice were used for the tests. All the mice were acclimated for seven days after arrival. Then, the mice were grouped into the following four groups: a control group, a group receiving oxaliplatin, and two groups receiving oxaliplatin and two different doses of xylitol (groups receiving oxaliplatin+xylitol). Each group consisted of nine mice.
On Day 8 of acclimation, the mice in the group receiving oxaliplatin and the groups receiving oxaliplatin+xylitol were intraperitoneally administered with oxaliplatin at a dose of 6 mg/kg. This day was designated as Day 0 of administration. Thereafter, these mice were intraperitoneally administered with oxaliplatin at a daily dose of 6 mg/kg on Day 7 and Day 14.
The mice in a first group receiving oxaliplatin and xylitol were orally administered with xylitol at a dose of 1 mg/kg daily from Day 0. The mice in a second group receiving oxaliplatin and xylitol were orally administered with xylitol at a dose of 5 mg/kg daily from Day 0.
A cold plate test was performed to examine the effect of xylitol on paresthesia that is caused by a low temperature stimulus. The mice in the four groups described in (1) of the present example (Example 1) were placed on a cold plate set at 10° C., and withdrawal response time (latent time) was measured. It is presumed that a shorter latent time reflects a greater degree of shunning the low temperature stimulus by the cold plate.
Six to seven-week-old female Balb/c mice were used for the tests as with Example 1. All the mice were acclimated for seven days after arrival. Then, the mice were grouped into the following five groups: a control group, a group receiving only oxaliplatin, and three groups receiving oxaliplatin and three different doses of xylitol. Each group consisted of seven mice.
On Day 8 of acclimation, the mice in the groups other than the control group were intraperitoneally administered with oxaliplatin at a dose of 6 mg/kg. This day was designated as the first day of the administration (Day 0). Thereafter, these mice were intraperitoneally administered with oxaliplatin at the same dose on Day 7 and Day 14 for a total of 3 doses.
The mice in a first group receiving oxaliplatin+xylitol were orally administered with xylitol at a dose of 5 mg/kg daily from Day 6 of administration. The mice in a second group receiving oxaliplatin+xylitol were orally administered with xylitol at a dose of 25 mg/kg daily from Day 6 of administration. The mice in a third group receiving oxaliplatin+xylitol were orally administered with xylitol at a dose of 100 mg/kg daily from Day 6 of administration. In this context, “Day 6 of administration” means that the number of days after administration is 6. The same applies hereinafter.
A test was performed on the mice in the five groups described in (1) of the present example (Example 2) to examine the effect of xylitol on paresthesia that is caused by a low temperature stimulus. The mice in respective groups were placed on a cold plate set at 10° C., and withdrawal response time (latent time) was measured. It is presumed that a shorter latent time reflects a greater degree of shunning the low temperature stimulus by the cold plate.
Six to seven-week-old female Balb/c mice were used for the tests as with Example 1. All the mice were acclimated for seven days after arrival. […]

The conditions of data set [2]: as is well known; except diarrhea no side effects due to overdose observed; cited from earlier work.
The mark [3] stands for this setting: 6 mg/kg oxaliplatin + 5 mg/kg test substance orally daily from Day 0 (prevention).
Where [4] appears, read: 6 mg/kg oxaliplatin + 100 mg/kg test substance orally daily from Day 6 (therapy), time course after Day 6.

“Also recorded” adds a separate entry of the source.

Take `OC[C@@H](O)[C@H](O)CO` [D-threitol]: the “withdrawal response time (latent time)” value was “approximately similar to that of the control group” in data set [1] (setting [3]) and “tended to become longer from Day 6 onwards; also recorded: significantly longer withdrawal response time” in data set [1] (setting [4]). Besides, the “safety for the human body” value in data set [2] was “safe for the human body”.

Turning to `OC[C@H](O)[C@H](O)[C@H](O)[C@@H](O)CO` [L-talitol], the “withdrawal response time (latent time)” value is reported as “almost the same data; also recorded: approximately similar to that of the control group” in data set [1] (setting [3]) and “tended to become longer from Day 9 onwards; also recorded: significantly longer withdrawal response time” in data set [1] (setting [4]). For the same compound, in data set [2], the “safety for the human body” value was “safe for the human body”.

In the case of `OC[C@@H](O)[C@H](O)[C@@H](O)CO` [xylitol], the “withdrawal response time (latent time)” value is listed as “approximately similar to that of the control group” in data set [1] (6 mg/kg oxaliplatin + 1 mg/kg test substance orally daily from Day 0 (prevention)); “significantly longer withdrawal response time” in data set [1] (6 mg/kg oxaliplatin + 5 mg/kg orally daily from Day 6, on Day 10, vs group receiving 6 mg/kg oxaliplatin); “no significant difference” in data set [1] (6 mg/kg oxaliplatin + 5 mg/kg orally daily from Day 6, on Day 14 and Day 17, vs group receiving 6 mg/kg oxaliplatin); “significantly longer withdrawal response time” in data set [1] (6 mg/kg oxaliplatin + 5 mg/kg orally daily from Day 6, on Day 21, vs group receiving 6 mg/kg oxaliplatin); “approximately similar to that of the control group” in data set [1] (setting [3]); “tended to become longer from Day 6 onwards; also recorded: significantly longer withdrawal response time” in data set [1] (6 mg/kg oxaliplatin + 5 mg/kg test substance orally daily from Day 6 (therapy), time course after Day 6). Moreover, the “withdrawal response time (latent time)” value is on record as “significantly longer withdrawal response time” in data set [1] (6 mg/kg oxaliplatin + 25 mg/kg orally daily from Day 6, on Day 10, vs group receiving 6 mg/kg oxaliplatin); “tended to become longer from Day 6 onwards; also recorded: increase in the withdrawal response time; also recorded: significantly longer withdrawal response time” in data set [1] (6 mg/kg oxaliplatin + 25 mg/kg test substance orally daily from Day 6 (therapy), time course after Day 6); “significantly longer withdrawal response time” in data set [1] (6 mg/kg oxaliplatin + 100 mg/kg orally daily from Day 6, on Day 10, vs group receiving 6 mg/kg oxaliplatin). The “safety for the human body” value in data set [2] was “safe for the human body”.
